Structures are written as SMILES. Activity calls are given as the source filed them. A value given as a limit tells only on which side of the number the result lay.

Series [1] relates to Staphylococcus aureus. Put plainly: Antibacterial activity against methicillin-resistant Staphylococcus aureus clinical isolate M-1 incubated for 16 to 18 hrs CLSI based by microbroth dilution assay. The series is classed as functional. To be noted: time 16-18 hrs.
The subject of series [2] is Staphylococcus aureus. The series can be described thus: Antibacterial activity against methicillin-resistant Staphylococcus aureus clinical isolate M-9 incubated for 16 to 18 hrs CLSI based by microbroth dilution assay. It is filed as functional. As to conditions: time 16-18 hrs.
Series [3] relates to Staphylococcus aureus. Put plainly: Antibacterial activity against methicillin-resistant Staphylococcus aureus clinical isolate M-10 incubated for 16 to 18 hrs CLSI based by microbroth dilution assay. The series is classed as functional. To be noted: time 16-18 hrs. (In broth dilution the organism is exposed to a series of concentrations in liquid medium.)
Series [4] concerns Staphylococcus aureus. The series can be described thus: Antibacterial activity against Staphylococcus aureus ATCC 29213 incubated for 16 to 18 hrs CLSI based by microbroth dilution assay. It is filed as functional. To be noted: time 16-18 hrs.
The test system of series [5] is Staphylococcus aureus. The series can be described thus: Antibacterial activity against methicillin-resistant Staphylococcus aureus clinical isolate M-8 incubated for 16 to 18 hrs CLSI based by microbroth dilution assay. The series is classed as functional. To be noted: time 16-18 hrs.
For series [6], the system named is Staphylococcus aureus. The series can be described thus: Antibacterial activity against methicillin-resistant Staphylococcus aureus clinical isolate M-2 incubated for 16 to 18 hrs CLSI based by microbroth dilution assay. The series is classed as functional. To be noted: time 16-18 hrs.
The test system of series [7] is Staphylococcus aureus. The series can be described thus: Bactericidal activity against Staphylococcus aureus ATCC 29213 assessed as increase in fluorescence intensity at MIC incubated for 180 mins. It is filed as functional, organism-based.
A further series has as its system Escherichia coli. The series can be described thus: Antibacterial activity against Escherichia coli ATCC 25922 incubated for 16 to 18 hrs CLSI based by microbroth dilution assay. It is filed as functional. To be noted: time 16-18 hrs.
Series [8] concerns Staphylococcus aureus. Put plainly: Antibacterial activity against methicillin-resistant Staphylococcus aureus clinical isolate M-5 incubated for 16 to 18 hrs CLSI based by microbroth dilution assay. It is filed as functional. To be noted: time 16-18 hrs.
Series [9] has as its system Staphylococcus aureus. Put plainly: Antibacterial activity against methicillin-resistant Staphylococcus aureus clinical isolate M-6 incubated for 16 to 18 hrs CLSI based by microbroth dilution assay. The series is classed as functional. As to conditions: time 16-18 hrs.
For series [10], the system named is Staphylococcus aureus. The series can be described thus: Antibacterial activity against methicillin-resistant Staphylococcus aureus clinical isolate M-7 incubated for 16 to 18 hrs CLSI based by microbroth dilution assay. It is filed as functional. To be noted: time 16-18 hrs.
The subject of series [11] is Staphylococcus aureus. Put plainly: Antibacterial activity against methicillin-resistant Staphylococcus aureus clinical isolate M-3 incubated for 16 to 18 hrs CLSI based by microbroth dilution assay. The series is classed as functional. To be noted: time 16-18 hrs.
Series [12] has as its system Staphylococcus aureus. Put plainly: Antibacterial activity against methicillin-resistant Staphylococcus aureus clinical isolate M-4 incubated for 16 to 18 hrs CLSI based by microbroth dilution assay. To be noted: time 16-18 hrs. The series is classed as functional.
The test system of series [13] is Staphylococcus aureus. Put plainly: Bactericidal activity against Staphylococcus aureus ATCC 29213 assessed as fluorescent signal at MIC incubated for 20 mins. The series is classed as functional, organism-based.
Series [14] is described as follows: Selectivity index, ratio of HC50 for sheep erythrocytes to MIC for Staphylococcus aureus ATCC 29213. It is filed as toxicity. As to conditions: read-out: Selectivity Index.
Series [15] is described as follows: Hemolytic activity in sheep erythrocytes incubated for 1 hr by absorbance based assay. The series is classed as toxicity, cell-based, Ovis aries, Erythrocyte.
Series [16] in a line: Toxicity in KM mouse infected with methicillin-resistant Staphylococcus aureus clinical isolate M-4 assessed as histopathological abnormality in spleen at 5 mg/kg, sc measured after 24 hrs by H and E staining based analysis. The series is classed as organism-based. As to conditions: in vivo.
The nature of series [17]: Toxicity in KM mouse infected with methicillin-resistant Staphylococcus aureus clinical isolate M-4 assessed as histopathological abnormality in heart at 5 mg/kg, sc measured after 24 hrs by H and E staining based analysis. The series is classed as organism-based. As to conditions: in vivo.
Series [18] relates to Staphylococcus aureus. The series can be described thus: Antibacterial activity against methicillin-resistant Staphylococcus aureus clinical isolate M-4 infected in KM mouse assessed as survival rate of bacteria at 5 mg/kg, sc measured after 24 hrs relative to control. The series is classed as functional.
The nature of series [19]: Toxicity in KM mouse infected with methicillin-resistant Staphylococcus aureus clinical isolate M-4 assessed as histopathological abnormality in kidneys at 5 mg/kg, sc measured after 24 hrs by H and E staining based analysis. As to conditions: in vivo. The series is classed as organism-based.
A short description of series [20]: Toxicity in KM mouse infected with methicillin-resistant Staphylococcus aureus clinical isolate M-4 assessed as histopathological abnormality in liver at 5 mg/kg, sc measured after 24 hrs by H and E staining based analysis. The series is classed as organism-based. To be noted: in vivo.
The nature of series [21]: Toxicity in KM mouse infected with methicillin-resistant Staphylococcus aureus clinical isolate M-4 assessed as histopathological abnormality in lungs at 5 mg/kg, sc measured after 24 hrs by H and E staining based analysis. It is filed as organism-based. To be noted: in vivo.
Series [22] concerns Staphylococcus aureus. Put plainly: Bactericidal activity against methicillin-resistant Staphylococcus aureus clinical isolate M-4 at 8 times MIC incubated upto 8 hrs by time kill assay. It is filed as functional, organism-based.
Series [23] concerns Staphylococcus aureus. The series can be described thus: Bactericidal activity against Staphylococcus aureus ATCC 29213 at 8 times MIC incubated upto 8 hrs by time kill assay. The series is classed as functional, organism-based.

As to `CN(C)c1ccc(-c2nc3c4ccccc4c4ccccc4c3n2CCCCBr)cc1`, the minimum inhibitory concentration (MIC) with Staphylococcus aureus [1], with Staphylococcus aureus [2], against Staphylococcus aureus [3], in the series with Staphylococcus aureus [4], against Staphylococcus aureus [5] and against Staphylococcus aureus [6] was greater than 64 µg/mL each time. Also, the minimal inhibitory concentration (MIC) against Escherichia coli, with Staphylococcus aureus [8], against Staphylococcus aureus [9], with Staphylococcus aureus [10], against Staphylococcus aureus [11] and with Staphylococcus aureus [12] was greater than 64 µg/mL throughout. Moreover, the outcome with Staphylococcus aureus [7] was inactive.
Regarding `CCCCCNC(=O)C[N+](C)(C)CCCn1c(-c2ccc(N(C)C)cc2)nc2c3ccccc3c3ccccc3c21.[Br-]`, the MIC with Staphylococcus aureus [1] stood at 8 µg/mL; in the series on Staphylococcus aureus [2], 4 µg/mL; with Staphylococcus aureus [3], 8 µg/mL; with Staphylococcus aureus [4], 8 µg/mL; against Staphylococcus aureus [5], 8 µg/mL; with Staphylococcus aureus [6], 8 µg/mL. Further, the MIC in the series with Escherichia coli is 64 µg/mL; against Staphylococcus aureus [8], 8 µg/mL; in the series with Staphylococcus aureus [9], 8 µg/mL; against Staphylococcus aureus [10], 4 µg/mL; with Staphylococcus aureus [11], 8 µg/mL; with Staphylococcus aureus [12] it was 4 µg/mL. In addition, the result in the series with Staphylococcus aureus [13] was Active. For the same compound, the selectivity ratio in series [14] is greater than 80. The same compound displayed a concentration for 50% haemolysis (HC50) at 1 h in series [15] greater than 640 µg/mL.
Regarding `CC(C)CN(CC(C)C)C(=O)C[N+](C)(C)CCCCCn1c(-c2ccc(N(C)C)cc2)nc2c3ccccc3c3ccccc3c21.[Br-]`, the MIC is 1 µg/mL with Staphylococcus aureus [1]; 1 µg/mL against Staphylococcus aureus [2]; 2 µg/mL against Staphylococcus aureus [3]; 1 µg/mL against Staphylococcus aureus [4]; 1 µg/mL against Staphylococcus aureus [5]; 1 µg/mL in the series on Staphylococcus aureus [6]. In addition, the MIC against Escherichia coli was greater than 128 µg/mL; in the series on Staphylococcus aureus [8], 2 µg/mL; against Staphylococcus aureus [9], 1 µg/mL; in the series on Staphylococcus aureus [10], 1 µg/mL; in the series with Staphylococcus aureus [11] it was 1 µg/mL; in the series with Staphylococcus aureus [12], 1 µg/mL. In addition, the selectivity ratio in [14] worked out at 247. The compound also registered an HC50 at 1 h in [15] of 247 µg/mL.
In the case of `CC(C)N(C(=O)C[N+](C)(C)CCCn1c(-c2ccc(N(C)C)cc2)nc2c3ccccc3c3ccccc3c21)C(C)C.[Br-]`, the minimal inhibitory concentration (MIC) in the series on Staphylococcus aureus [1] worked out at 2 µg/mL; in the series on Staphylococcus aureus [2] it was 2 µg/mL; with Staphylococcus aureus [3], 2 µg/mL; with Staphylococcus aureus [4], 2 µg/mL; in the series on Staphylococcus aureus [5], 4 µg/mL; against Staphylococcus aureus [6], 2 µg/mL. Moreover, the MIC in the series on Escherichia coli was greater than 128 µg/mL; in the series on Staphylococcus aureus [8], 2 µg/mL; with Staphylococcus aureus [9], 2 µg/mL; against Staphylococcus aureus [10], 2 µg/mL; in the series with Staphylococcus aureus [11] it was 2 µg/mL; in the series on Staphylococcus aureus [12], 2 µg/mL. Moreover, the selectivity ratio in series [14] came out at 8.6. In series [15], this compound showed a concentration for 50% haemolysis (HC50) at 1 h of 68.5 µg/mL.
Take `CN[C@H](CC(C)C)C(=O)N[C@H]1C(=O)N[C@@H](CC(N)=O)C(=O)N[C@H]2C(=O)N[C@H]3C(=O)N[C@H](C(=O)N[C@H](C(=O)O)c4cc(O)cc(O)c4-c4cc3ccc4O)[C@H](O)c3ccc(c(Cl)c3)Oc3cc2cc(c3O[C@@H]2O[C@H](CO)[C@@H](O)[C@H](O)[C@H]2O[C@H]2C[C@](C)(N)[C@H](O)[C@H](C)O2)Oc2ccc(cc2Cl)[C@H]1O` [VANCOMYCIN]: the Activity entry in [16], in series [17], in series [19], in series [20] and in series [21] was “Non-Toxic” in each case. The survival at 5 mg/kg in the series on Staphylococcus aureus [18] stood at 2.15%. For the same compound, the outcome in the series with Staphylococcus aureus [22] and in the series with Staphylococcus aureus [23] was Active.

Broadly, the MIC is the smallest concentration in the dilution series that meets the test's criterion for growth inhibition. A higher MIC goes with a less susceptible organism. One may read the HC50 as the concentration that lyses half of the red blood cells. A lower HC50 goes with stronger haemolysis.

The values are drawn from ChEMBL document CHEMBL5512637, “Development of Membrane-Targeting Fluorescent 2-Phenyl-1H-phenanthro[9,10-d]imidazole-Antimicrobial Peptide Mimic Conjugates against Methicillin-Resistant Staphylococcus aureus” (J Med Chem, 2024).
